# According to ChEMBL document CHEMBL4421733, “Inhibitors of eya2” (2012):
# The source made the active and inactive calls. No cut-off for these calls is given here.
# Experiments:
# [1] = Binding affinity to Mg2+ ion assessed as induction of chemical shift at 5 mM in presence of in presence of 25 mM magnesium 1H-NMR spectroscopy
# [2] = Binding affinity to Na+ ion assessed as induction of chemical shift at 5 mM by 1H-NMR spectroscopy
# [3] = Binding affinity to Mg2+ ion at 25 uM in aqueous buffers by UV spectroscopy
# [4] = Binding affinity to Mg2+ ion in acetonitrile assessed as induction of shift in the maximum absorbance wavelength by UV spectroscopy
# [5] = Binding affinity to Na+ ion in acetonitrile at 12.5 uM assessed as induction of shift in the maximum absorbance wavelength by UV spectroscopy
# [6] = molecular target: T1, Protein phosphatase EYA2 (Homo sapiens) (UniProt O00167); assay: Inhibition of GST-fused human Eya2 ED (253 to 538 residues) expressed in Escherichia coli at […] pre-incubated for 10 mins followed by OMFP substrate addition and further incubated for 30 mins by fluorescence based assay
# T1 sequence (whole entry): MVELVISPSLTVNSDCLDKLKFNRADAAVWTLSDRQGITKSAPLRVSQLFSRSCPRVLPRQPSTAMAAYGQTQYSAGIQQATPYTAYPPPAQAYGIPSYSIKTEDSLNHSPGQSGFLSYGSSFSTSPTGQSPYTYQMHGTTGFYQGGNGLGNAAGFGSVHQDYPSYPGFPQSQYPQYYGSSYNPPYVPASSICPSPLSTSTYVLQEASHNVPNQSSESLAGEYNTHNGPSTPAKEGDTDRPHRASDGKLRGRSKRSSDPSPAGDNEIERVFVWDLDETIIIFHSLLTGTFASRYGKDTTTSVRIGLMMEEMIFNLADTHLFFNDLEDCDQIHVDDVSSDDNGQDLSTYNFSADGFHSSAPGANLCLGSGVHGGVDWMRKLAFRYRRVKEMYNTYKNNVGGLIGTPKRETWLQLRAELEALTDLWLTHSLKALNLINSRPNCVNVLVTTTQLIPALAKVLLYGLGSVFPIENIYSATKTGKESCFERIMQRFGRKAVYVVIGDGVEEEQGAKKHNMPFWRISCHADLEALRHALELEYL
# [7] = Binding affinity to Mg2+ ion in acetonitrile assessed as induction of shift in the maximum absorbance wavelength at 25 uM by UV spectroscopy
smiles,measurement,setting,value
O=C(N/N=C/c1ccc(Sc2ccccn2)o1)c1cccc(F)c1,Activity,[1],-0.6 ppm
same,Activity,[2],inactive
same,Activity,[3],inactive
same,Activity,[4],Dose-dependent effect
same,Activity,[5],inactive
c1cnc2c(c1)ccc1cccnc12,inhibition,[6],inactive
Cc1ccccc1C(=O)N/N=C/c1ccc(Sc2ccccn2)o1,Activity,[7],Active
N[C@@H](Cc1ccccc1)C(=O)O,inhibition,[6],inactive
C=C1[C@@H](O)[C@@H]2O[C@@]3(CC[C@H](/C=C/[C@@H](C)[C@@H]4CC(C)=C[C@@]5(O[C@H](C[C@@](C)(O)C(=O)O)CC[C@H]5O)O4)O3)CC[C@H]2O[C@@H]1[C@@H](O)C[C@H](C)[C@H]1O[C@@]2(CCCCO2)CC[C@H]1C,inhibition,[6],inactive
